Data reported in the supplement of paper PMC4862054.

Assays:
MDA-MB-231 [1] = experiment: drug sensitivity score (DSS), CellTiter-Blue viability (DSS (AUC-based score)); higher = stronger viability inhibition; extreme values may be limits of the assay; details: incubation time: 72 h
Description: (§1)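 DSRT with the CellTiter-Blue (resazurin reduction) viability readout, fluorescence 560/590 nm, 72 h incubation. Plates were normalised to DMSO and benzethonium chloride controls. DSS is computed from the area under the fitted dose-response curve (5 or 9 concentrations).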

BT-474 [2] = experiment: as above; details: incubation time: 72 h
Description: as §1

HCC1143 = experiment: as above; details: incubation time: 72 h
Description: as §1

CAL-85-1 = experiment: as above; details: incubation time: 72 h
Description: as §1

CAL-148 = experiment: as above; details: incubation time: 72 h
Description: as §1

DU-4475 [3] = experiment: as above; details: incubation time: 72 h
Description: as §1

BT-549 [4] = experiment: as above; details: incubation time: 72 h
Description: as §1

CAL-51 = experiment: as above; details: incubation time: 72 h
Description: as §1

HCC1937 = experiment: as above; details: incubation time: 72 h
Description: as §1

HCC1599 [5] = experiment: as above; details: incubation time: 72 h
Description: as §1

MDA-MB-436 [6] = experiment: as above; details: incubation time: 72 h
Description: as §1

CAL-120 = experiment: as above; details: incubation time: 72 h
Description: as §1

SK-BR-3 = experiment: as above; details: incubation time: 72 h
Description: as §1

MFM-223 [7] = experiment: as above; details: incubation time: 72 h
Description: as §1

HDQ-P1 [8] = experiment: as above; details: incubation time: 72 h
Description: as §1

MDA-MB-453 [9] = experiment: as above; details: incubation time: 72 h
Description: as §1

Hs578T = experiment: as above; details: incubation time: 72 h
Description: as §1

MDA-MB-468 = experiment: as above; details: incubation time: 72 h
Description: as §1

MDA-MB-231 [10] = experiment: normalised viability (% of control), CellTiter-Blue; higher = more viable cells (about 100 = DMSO control); details: 100 nM; incubation time: 72 h
In short: (§2)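 Breast cancer cell lines in 20 µl suspension were seeded onto 384-well plates pre-loaded with compound dissolved in 5 µl medium, then incubated 72 h. CellTiter-Blue reagent (2.5 µl) was added for 2 h at 37 °C and fluorescence read at 560/590 nm. Each plate was normalised to vehicle (100) and a positive kill control (0), with Z'-factor quality control. The value is normalised viability at one listed concentration of the series.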

BT-474 [11] = experiment: as above; details: 100 nM; incubation time: 72 h
In short: as §2

DU-4475 [12] = experiment: as above; details: 10 nM; incubation time: 72 h
In short: as §2

BT-549 [13] = experiment: as above; details: 100 nM; incubation time: 72 h
In short: as §2

HCC1599 [14] = experiment: as above; details: 100 nM; incubation time: 72 h
In short: as §2

MDA-MB-436 [15] = experiment: as above; details: 100 nM; incubation time: 72 h
In short: as §2

MFM-223 [16] = experiment: as above; details: 100 nM; incubation time: 72 h
In short: as §2

HDQ-P1 [17] = experiment: as above; details: 10 nM; incubation time: 72 h
In short: as §2

MDA-MB-453 [18] = experiment: as above; details: 10 nM; incubation time: 72 h
In short: as §2

`CN[C@@H]1C[C@H]2O[C@@](C)([C@@H]1OC)n1c3ccccc3c3c4c(c5c6ccccc6n2c5c31)C(=O)N[C@H]4O` [UCN-01] was tested, and the drug sensitivity score (MDA-MB-231 [1]) was 24.5, the drug sensitivity score (BT-474 [2]) was 12.2 and the drug sensitivity score (HCC1143) was 22.2. For the same molecule, the drug sensitivity score (CAL-85-1) was 17.3, the drug sensitivity score (CAL-148) was 7 and the drug sensitivity score (DU-4475 [3]) was 19.5. It also gave a drug sensitivity score (BT-549 [4]) of 22.4, a drug sensitivity score (CAL-51) of 20.4 and a drug sensitivity score (HCC1937) of 20. For the same molecule, the drug sensitivity score (HCC1599 [5]) was 17, the drug sensitivity score (MDA-MB-436 [6]) was 12.4 and the drug sensitivity score (CAL-120) was 24.2. For the same molecule, the drug sensitivity score (SK-BR-3) was 23, the drug sensitivity score (MFM-223 [7]) was 14.7 and the drug sensitivity score (HDQ-P1 [8]) was 19.9. For the same molecule, the drug sensitivity score (MDA-MB-453 [9]) was 18.2, the drug sensitivity score (Hs578T) was 29.2 and the drug sensitivity score (MDA-MB-468) was 22.4. For the same molecule, the normalised viability (MDA-MB-231 [10]) was 37%, the normalised viability (BT-474 [11]) was 94.6% and the normalised viability (DU-4475 [12]) was 101%. For the same molecule, the normalised viability (BT-549 [13]) was 52.3%, the normalised viability (HCC1599 [14]) was 56.3% and the normalised viability (MDA-MB-436 [15]) was 75.1%. For the same molecule, the normalised viability (MFM-223 [16]) was 66.9%, the normalised viability (HDQ-P1 [17]) was 72.9% and the normalised viability (MDA-MB-453 [18]) was 106%.

In the case of `Clc1ccc(Nc2nnc(Cc3ccncc3)c3ccccc23)cc1` [Vatalanib], the drug sensitivity score (MDA-MB-231 [1]) is reported as 0, the drug sensitivity score (BT-474 [2]) is reported as 0 and the drug sensitivity score (HCC1143) is reported as 0. For the same molecule, the drug sensitivity score (CAL-85-1) was 0, the drug sensitivity score (CAL-148) was 0 and the drug sensitivity score (DU-4475 [3]) was 0. For the same molecule, the drug sensitivity score (BT-549 [4]) was 0, the drug sensitivity score (CAL-51) was 0 and the drug sensitivity score (HCC1937) was 0. It also gave a drug sensitivity score (HCC1599 [5]) of 0, a drug sensitivity score (MDA-MB-436 [6]) of 0 and a drug sensitivity score (CAL-120) of 0. For the same molecule, the drug sensitivity score (SK-BR-3) was 0, the drug sensitivity score (MFM-223 [7]) was 0 and the drug sensitivity score (HDQ-P1 [8]) was 0. The drug sensitivity score (MDA-MB-453 [9]) was 0, the drug sensitivity score (Hs578T) was 0 and the drug sensitivity score (MDA-MB-468) was 0. The normalised viability (MDA-MB-231 [10]) was 89.1%, the normalised viability (BT-474 [11]) was 100% and the normalised viability (DU-4475 [12]) was 97.9%. It also gave a normalised viability (BT-549 [13]) of 81.4%, a normalised viability (HCC1599 [14]) of 109% and a normalised viability (MDA-MB-436 [15]) of 119%. It also gave a normalised viability (MFM-223 [16]) of 97.7%, a normalised viability (HDQ-P1 [17]) of 105% and a normalised viability (MDA-MB-453 [18]) of 111%.

Molecule `CCC1=C[C@@H]2CN(C1)Cc1c([nH]c3ccccc13)[C@@](C(=O)OC)(c1cc3c(cc1OC)N(C)[C@H]1[C@@](O)(C(=O)OC)[C@H](OC(C)=O)[C@]4(CC)C=CCN5CC[C@]31[C@@H]54)C2` [Vinorelbine] has a drug sensitivity score (MDA-MB-231 [1]) of 22.8, a drug sensitivity score (BT-474 [2]) of 16.1 and a drug sensitivity score (HCC1143) of 16.8. For the same molecule, the drug sensitivity score (CAL-85-1) was 20.9, the drug sensitivity score (CAL-148) was 22.5 and the drug sensitivity score (DU-4475 [3]) was 15.8. It also gave a drug sensitivity score (BT-549 [4]) of 25.6, a drug sensitivity score (CAL-51) of 19.6 and a drug sensitivity score (HCC1937) of 25.3. The drug sensitivity score (HCC1599 [5]) was 9.76, the drug sensitivity score (MDA-MB-436 [6]) was 16.5 and the drug sensitivity score (CAL-120) was 24.4. For the same molecule, the drug sensitivity score (SK-BR-3) was 26, the drug sensitivity score (MFM-223 [7]) was 18.4 and the drug sensitivity score (HDQ-P1 [8]) was 16.5. It also gave a drug sensitivity score (MDA-MB-453 [9]) of 26.1, a drug sensitivity score (Hs578T) of 24.6 and a drug sensitivity score (MDA-MB-468) of 18.2. The normalised viability (MDA-MB-231 [10]) was 37.2%, the normalised viability (BT-474 [11]) was 43.6% and the normalised viability (DU-4475 [12]) was 107%. The normalised viability (BT-549 [13]) was 23.4%, the normalised viability (HCC1599 [14]) was 90.4% and the normalised viability (MDA-MB-436 [15]) was 56.8%. It also gave a normalised viability (MFM-223 [16]) of 49.1%, a normalised viability (HDQ-P1 [17]) of 99.6% and a normalised viability (MDA-MB-453 [18]) of 61.1%.

In the case of `Oc1nc(-c2ccc(C(F)(F)F)cc2)nc2c1CSCC2` [XAV-939], the drug sensitivity score (MDA-MB-231 [1]) is reported as 2.73, the drug sensitivity score (BT-474 [2]) is reported as 0 and the drug sensitivity score (HCC1143) is reported as 7.23. It also gave a drug sensitivity score (CAL-85-1) of 0, a drug sensitivity score (CAL-148) of 0 and a drug sensitivity score (DU-4475 [3]) of 0. For the same molecule, the drug sensitivity score (BT-549 [4]) was 0, the drug sensitivity score (CAL-51) was 0 and the drug sensitivity score (HCC1937) was 0. It also gave a drug sensitivity score (HCC1599 [5]) of 0, a drug sensitivity score (MDA-MB-436 [6]) of 0 and a drug sensitivity score (CAL-120) of 0. For the same molecule, the drug sensitivity score (SK-BR-3) was 0, the drug sensitivity score (MFM-223 [7]) was 0 and the drug sensitivity score (HDQ-P1 [8]) was 0.887. For the same molecule, the drug sensitivity score (MDA-MB-453 [9]) was 0, the drug sensitivity score (Hs578T) was 0 and the drug sensitivity score (MDA-MB-468) was 0. For the same molecule, the normalised viability (MDA-MB-231 [10]) was 89.1%, the normalised viability (BT-474 [11]) was 107% and the normalised viability (DU-4475 [12]) was 111%. For the same molecule, the normalised viability (BT-549 [13]) was 104%, the normalised viability (HCC1599 [14]) was 116% and the normalised viability (MDA-MB-436 [15]) was 128%. It also gave a normalised viability (MFM-223 [16]) of 96.5%, a normalised viability (HDQ-P1 [17]) of 104% and a normalised viability (MDA-MB-453 [18]) of 101%.
